Results as given in US6541194B2, “Method for the detection of the presence of chemical species known to inhibit a chemiluminescent reaction” (Neogen Corporation, priority 2000, dated 2003).

Target: T1, luciferase (Photinus pyralis, UniProt P08659)
T1 construct: purchased Analytical Luminescent Laboratories (ALL), Sparks, Md. #2005
Experiment: luciferin-luciferase chemiluminescent reaction with reactant mixture dried on reagent disc
Format: biochemical
Excerpt: As discussed above, the inherent chemical and mechanical stability of the polymeric material is ideally suited for use as a medium on which to load the chemiluminescent reagents for the practice of the present invention. A number of commercial enterprises market luciferin-luciferase reagent kits for use in chemiluminescent reaction assays. One that the inventors have found to be particularly well suited for the practice of the present invention is the “Firelight®” luciferin-luciferase reagent kit provided by Analytical Luminescent Laboratories (ALL) of Sparks, Md. […] This provides for a greater intensity of luminescence, and faster reaction kinetics.
In the preparation of the reagent discs 48, the reactant concentrate is loaded, preferably drop-wise, onto the Merocel® CF50, obtained in pre-sterilized sheets. The coated sheets are then dried at ambient temperatures under a vacuum, and the reagent discs are cut from the sheets in an appropriate size and shape. Alternatively, discs may be cut first and then loaded with appropriate reagent solution. When loaded in such fashion with the reagent mixture, reagent discs, approximately 6 mm in diameter and approximately 1.5 mm in height, carry approximately 0.5 mg of the dried reactant mixture.
It is recognized in the prior art that trehalose will stabilize delicate materials while they are freeze-dried. […]

T1 sequence (P08659 whole entry): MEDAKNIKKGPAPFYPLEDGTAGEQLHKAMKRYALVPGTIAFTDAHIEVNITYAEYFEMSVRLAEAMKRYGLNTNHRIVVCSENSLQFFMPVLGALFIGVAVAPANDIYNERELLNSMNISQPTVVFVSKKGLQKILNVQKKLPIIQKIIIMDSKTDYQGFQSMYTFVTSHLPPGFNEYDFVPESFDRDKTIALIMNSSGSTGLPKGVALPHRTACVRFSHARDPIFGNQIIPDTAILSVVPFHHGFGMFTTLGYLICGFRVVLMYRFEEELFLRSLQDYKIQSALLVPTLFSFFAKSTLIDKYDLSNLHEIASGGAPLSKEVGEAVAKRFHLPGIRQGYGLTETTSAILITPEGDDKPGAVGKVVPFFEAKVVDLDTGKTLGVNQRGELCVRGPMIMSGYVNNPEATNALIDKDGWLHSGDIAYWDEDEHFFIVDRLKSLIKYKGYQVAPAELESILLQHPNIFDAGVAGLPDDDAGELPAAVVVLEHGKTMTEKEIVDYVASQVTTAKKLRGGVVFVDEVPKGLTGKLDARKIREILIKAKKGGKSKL

OC[C@H]1O[C@H](O[C@H]2O[C@H](CO)[C@@H](O)[C@H](O)[C@H]2O)[C@H](O)[C@@H](O)[C@@H]1O [trehalose, a-D-glucopyranosyl-a-D-glucopyranoside]
observed luminescent intensities versus the same loading of reagents without the trehalose (6 mm×1.5 mm reagent disc, total loading approximately 4 mg, FIG. 12): more than twice | biochemical activity of the luciferase component of the reagent mixture (trehalose added to loading solution at levels approaching its saturation solubility): up to a doubling, or more
